Reference: US20150175608A1, “NOVEL 4-SUBSTITUTED 1,3-DIHYDRO-2H-BENZIMIDAZOL-2-ONE DERIVATIVES SUBSTITUTED WITH BENZIMIDAZOLES AS RESPIRATORY SYNCYTIAL VIRUS ANTIVIRAL AGENTS” (Janssen R&D Ireland, priority 2012, published 2015)

Columns and labels:
[1] = system: rgRSV224 virus; experiment: Antiviral activity: rgRSV224 replication (GFP expression) in HeLa cells; format: cell-based; details: human respiratory syncytial virus, 72 h, read-out: WT activity EC50
Protocol: (§1) Antiviral Activity Black 96-well clear-bottom microtiter plates (Corning, Amsterdam, The Netherlands) were filled in duplicate using a customized robot system with serial 4-fold dilutions of compound in a final volume of 50 μl culture medium [RPMI medium without phenol red, 10% FBS, 0.04% gentamycin (50 mg/ml) and 0.5% DMSO]. Then, 100 μl of a HeLa cell suspension (5×10^4 cells/ml) in culture medium was added to each well followed by the addition of 50 μl rgRSV224 (MOI=0.02) virus in culture medium using a multidrop dispenser (Thermo Scientific, Erembodegem, Belgium). rgRSV224 virus is an engineered virus that includes an additional GFP gene (Hallak et al, 2000) and was in-licensed from the NIH (Bethesda, Md., USA). Medium, virus- and mock-infected controls were included in each test. Cells were incubated at 37° C. in a 5% CO2 atmosphere. Three days post-virus exposure, viral replication was quantified by measuring GFP expression in the cells by a MSM laser microscope (Tibotec, Beerse, Belgium). The EC50 was defined as the 50% inhibitory concentration for GFP expression. In parallel, compounds were incubated for three days in a set of white 96-well microtiter plates (Corning) and the cytotoxicity of compounds in HeLa cells was determined by measuring the ATP content of the cells using the ATPlite kit (PerkinElmer, Zaventem, Belgium) according to the manufacturer's instructions. The CC50 was defined as the 50% concentration for cytotoxicity.

[2] = in vitro; format: cell-based; details: human
Protocol: as §1

Structure (SMILES) | EC50 [1] [nM] | CC50 at 3 days [2] [nM] | melting point [°C]
CS(=O)(=O)CCCn1c(Cn2c(=O)n(C3CC3)c3c(Cl)cncc32)nc2cc(Cl)ccc21 [Compound P1, 7-Chloro-3-((5-chloro-1-(3-(methylsulfonyl)-propyl)-1H-benzo[d]imidazol-2-yl)methyl)-1-cyclopropyl-1H-imidazo[4,5-c]pyridin-2(3H)-one] | 1.7 | > 100000 | –
CS(=O)(=O)CCCn1c(Cn2c(=O)n(C3CC3)c3c(Cl)cccc32)nc2cc(Cl)ccc21 [Compound P2, 4-Chloro-1-((5-chloro-1-(3-(methylsulfonyl)propyl)-1H-benzo[d]imidazol-2-yl)methyl)-3-cyclopropyl-1H-benzo[d]imidazol-2(3H)-one] | 7.4 | > 100000 | –
Cc1cccc2c1n(C1CC1)c(=O)n2Cc1nc2cc(Cl)ccc2n1CCCS(C)(=O)=O [Compound P3, 1-((5-Chloro-1-(3-(methylsulfonyl)propyl)-1H-benzo[d]imidazol-2-yl)-methyl)-3-cyclopropyl-4-methyl-1H-benzo[d]imidazol-2(3H)-one] | 5.1 | 64600 | –
Cc1cncc2c1n(C1CC1)c(=O)n2Cc1nc2cc(Cl)ccc2n1CCCS(C)(=O)=O [Compound P4, 3-((5-chloro-1-(3-(methylsulfonyl)propyl)-1H-benzo[d]imidazol-2-yl)methyl)-1-cyclopropyl-7-methyl-1H-imidazo[4,5-c]pyridin-2(3H)-one] | 1.4 | > 100000 | –
CS(=O)(=O)CCCn1c(Cn2c(=O)n(C3CC3)c3c(C(F)(F)F)cccc32)nc2cc(Cl)ccc21 [Compound P5, 1-((5-chloro-1-(3-(methylsulfonyl)propyl)-1H-benzo[d]imidazol-2-yl)-methyl)-3-cyclopropyl-4-(trifluoromethyl)-1H-benzo[d]imidazol-2(3H)-one] | 28 | > 100000 | 210.18
CS(=O)(=O)CCCn1c(Cn2c(=O)n(CC(F)(F)F)c3c(Cl)cncc32)nc2cc(Cl)ccc21 [Compound P6, 7-chloro-3-((5-chloro-1-(3-(methylsulfonyl)propyl)-1H-benzo[d]imidazol-2-yl)methyl)-1-(2,2,2-trifluoroethyl)-1H-imidazo[4,5-c]pyridin-2(3H)-one] | 9 | > 100000 | 232.82
CS(=O)(=O)CCCn1c(Cn2c(=O)n(CC(F)(F)F)c3c(Cl)cccc32)nc2cc(Cl)ccc21 [Compound P7, 4-chloro-1-((5-chloro-1-(3-(methylsulfonyl)propyl)-1H-benzo[d]imidazol-2-yl)methyl)-3-(2,2,2-trifluoroethyl)-1H-benzo[d]imidazol-2(3H)-one] | 12 | 69000 | –
